Measured values reported in US20230240291A1, “FUNGICIDAL COMPOSITIONS” (SYNGENTA CROP PROTECTION AG, priority 2020, published 2023).
*1 amine or outer side, *2 acyl side, *3 side chain or, on linkers, in order; H or OH if unused. Where a SMILES comes first, the peptide text is derived from it. [ ]: non-standard residue; d: D form. ξ: configuration not given here. ξNMeVal(3-OH) = CNC(C(=O)O)C(C)(C)O; NMeF = CN[CH](Cc1ccccc1)C(=O)O; X1 = CCC(C)C(O[*:1])C(=O)[*:2]; NMeV = CN[CH](C(=O)O)C(C)C

Tests used:
Botrytis cinerea = experiment: microbe, parasite or virus in culture; type: cell-based; conditions: 72 hours
Experimental: Mycelia fragments or conidia suspensions of a fungus, prepared either freshly from liquid cultures of the fungus or from cryogenic storage, are directly mixed into nutrient broth. DMSO solutions of the test compound (max. 10 mg/mL) is diluted with 0.025% Tween20 by factor 50 and 10 µL of this solution is pipetted into a microtiter plate (96-well format). […] The test plates are incubated in the dark at 24° C. and 96% relative humidity (rh). The inhibition of fungal growth is determined photometrically and visually after 3 - 7 days, depending on the pathosystem, and percent antifungal activity relative to the untreated check is calculated.
Conidia of the fungus from cryogenic storage were directly mixed into nutrient broth (PDB potato dextrose broth). After placing a DMSO solution of the test compositions into a microtiter plate (96-well format), the nutrient broth containing the fungal spores was added.

Alternaria solani = type: cell-based; conditions: 48 hours
Experimental: Mycelia fragments or conidia suspensions of a fungus, prepared either freshly from liquid cultures of the fungus or from cryogenic storage, are directly mixed into nutrient broth. DMSO solutions of the test compound (max. 10 mg/mL) is diluted with 0.025% Tween20 by factor 50 and 10 µL of this solution is pipetted into a microtiter plate (96-well format). The nutrient broth containing the fungal spores/mycelia fragments is then added to give an end concentration of the tested compound. The test plates are incubated in the dark at 24° C. and 96% relative humidity (rh). The inhibition of fungal growth is determined photometrically and visually after 3 - 7 days, depending on the pathosystem, and percent antifungal activity relative to the untreated check is calculated.
Conidia of the fungus from cryogenic storage were directly mixed into nutrient broth (PDB potato dextrose broth). After placing a DMSO solution of the test compositions into a microtiter plate (96-well format) the nutrient broth containing the fungal spores was added.

Compound: CCC(C)C1NC(=O)C2CCCN2C(=O)C(Cc2ccccc2)N(C)C(=O)C(Cc2ccccc2)NC(=O)C(C(C)C)N(C)C(=O)C(C(C)CC)OC(=O)C(C(C)(C)O)N(C)C(=O)C(CC(C)C)NC(=O)C(C(C)C)N(C)C1=O (centres unmarked) [Aureobasidin A] (cyclo([ξNMeVal(3-OH)][X1][NMeV]F[NMeF]PI[NMeV]L); configuration not given here)
- (A) inhibition (Botrytis cinerea; Aureobasidin A 0.01 ppm alone, fludioxonil table): 22%
- (A) inhibition (Botrytis cinerea; Aureobasidin A 0.01 ppm alone, growth inhibition, photometric, iprodione table): 18%
- (A) inhibition (Botrytis cinerea; Aureobasidin A 0.02 ppm alone, iprodione table): 60%
- (A) inhibition (Alternaria solani; Aureobasidin A 0.005 ppm alone, growth inhibition, photometric): 11%

Compound: N#Cc1c[nH]cc1-c1cccc2c1OC(F)(F)O2 [Fludioxonil, fludioxonil]
- inhibition at […] (Botrytis cinerea; Botrytis cinerea, Fludioxonil 0.0063 ppm alone, read-out: (B) inhibition): 0%

Compound: C=CCOC(Cn1ccnc1)c1ccc(Cl)cc1Cl (centres unmarked) [Imazalil]
- (B) inhibition (Alternaria solani; component (B) 0.5 ppm alone): 35%

Compound: CC(C)NC(=O)N1CC(=O)N(c2cc(Cl)cc(Cl)c2)C1=O [Iprodione, iprodione]
- inhibition at 0.125 ppm (Botrytis cinerea; Botrytis cinerea, Iprodione 0.125 ppm alone, read-out: (B) inhibition): 4%
- inhibition at 0.25 ppm (Botrytis cinerea; Botrytis cinerea, Iprodione 0.250 ppm alone, read-out: (B) inhibition): 0%
